Source: ChEMBL document CHEMBL1139501, “Synthesis and biological evaluation of benzodioxanylpiperazine derivatives as potent serotonin 5-HT(1A) antagonists: the discovery of Lecozotan” (J Med Chem, 2005)

Columns and labels:
[1] = molecular target: T1, 5-hydroxytryptamine receptor 1A (Homo sapiens, UniProt P08908); assay: biochemical
T1 sequence (P08908 whole entry): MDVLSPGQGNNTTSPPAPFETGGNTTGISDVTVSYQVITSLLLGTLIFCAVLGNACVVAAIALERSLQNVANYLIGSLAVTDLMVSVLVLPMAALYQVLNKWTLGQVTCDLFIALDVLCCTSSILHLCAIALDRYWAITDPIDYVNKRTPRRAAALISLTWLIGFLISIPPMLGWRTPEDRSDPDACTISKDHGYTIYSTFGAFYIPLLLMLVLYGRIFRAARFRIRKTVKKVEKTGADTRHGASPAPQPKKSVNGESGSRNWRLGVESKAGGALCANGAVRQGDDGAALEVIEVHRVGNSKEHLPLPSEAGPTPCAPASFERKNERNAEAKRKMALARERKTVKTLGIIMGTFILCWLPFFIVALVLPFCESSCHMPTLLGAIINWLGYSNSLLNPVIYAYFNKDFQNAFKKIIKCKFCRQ

[2] = system: Rattus norvegicus; assay: Effective dose on the 8-OH-DPAT induced response at 3 mg/kg sc in presence of 8-OH-DPAT (Effective dose value for 8-OH-DPAT = 0.18); type: functional; details: route subcutaneous
[3] = molecular target: T1, 5-hydroxytryptamine receptor 1A
[4] = molecular target: T1, 5-hydroxytryptamine receptor 1A; remark: listed apart in the source
[5] = system: Rattus norvegicus; assay: Effective dose on the 8-OH-DPAT induced response at 3 mg/kg sc in presence of 8-OH-DPAT (Effective dose value for 8-OH-DPAT = 0.32); type: functional; details: route subcutaneous
[6] = system: Rattus norvegicus; assay: Effective dose on the 8-OH-DPAT induced response at 3 mg/kg sc in presence of 8-OH-DPAT (Effective dose value for 8-OH-DPAT = 0.17); type: functional; details: route subcutaneous
[7] = system: Rattus norvegicus; assay: Effective dose on the 8-OH-DPAT induced response at 3 mg/kg sc in presence of 8-OH-DPAT (Effective dose value for 8-OH-DPAT = 0.25); type: functional; details: route subcutaneous

Row | Ki [1] [nM] | IC50 [3] [nM] | Compound | further results
1 | 8.6 |  | C[C@@H](CN(C(=O)c1ccc(C(F)(F)F)cc1)c1ccccn1)N1CCN(c2cccc3c2OCCO3)CC1 | 
2 |  | 42 | C[C@H](CN(C(=O)c1ccc(C#N)cc1)c1ccccn1)N1CCN(c2cccc3c2OCCO3)CC1 [LECOZOTAN] | ED50 [2]: 3.68 mg/kg
3 | 1.9 | 32.1 | C[C@H](CN(C(=O)c1ccc(C(F)(F)F)cc1)c1ccccn1)N1CCN(c2cccc3c2OCCO3)CC1 | IC50 [4]: 6.2 nM; ED50 [5]: 0.94 mg/kg
4 |  |  | C[C@H](CN(C(=O)c1ccc(Cl)cc1)c1ccccn1)N1CCN(c2cccc3c2OCCO3)CC1 | ED50 [6]: 1.82 mg/kg
5 | 3.4 |  | C[C@@H](CN(C(=O)c1ccc([N+](=O)[O-])cc1)c1ccccn1)N1CCN(c2cccc3c2OCCO3)CC1 | 
6 | 9.2 |  | C[C@@H](CN(C(=O)c1ccc(C#N)cc1)c1ccccn1)N1CCN(c2cccc3c2OCCO3)CC1 | 
7 | 1 | 23.2 | C[C@H](CN(C(=O)c1ccc([N+](=O)[O-])cc1)c1ccccn1)N1CCN(c2cccc3c2OCCO3)CC1 | IC50 [4]: 4.3 nM; ED50 [7]: 3.19 mg/kg
